Activity calls are given as the source filed them.
Columns and labels:
Procathepsin L = Procathepsin L (Homo sapiens, UniProt P07711)
Aspartyl aminopeptidase = Aspartyl aminopeptidase (Plasmodium falciparum 3D7, UniProt Q8I2J3)
[1] = target: DNA dC->dU-editing enzyme APOBEC-3A (Homo sapiens, UniProt P31941); test: Dose Response confirmation of small molecule APOBEC3A DNA Deaminase Inhibitors via a fluorescence-based single-stranded DNA deaminase assay. [Related pubchem assays (depositor defined):AID493011, AID493024]; format: functional
Sequence of DNA dC->dU-editing enzyme APOBEC-3A (P31941 whole entry): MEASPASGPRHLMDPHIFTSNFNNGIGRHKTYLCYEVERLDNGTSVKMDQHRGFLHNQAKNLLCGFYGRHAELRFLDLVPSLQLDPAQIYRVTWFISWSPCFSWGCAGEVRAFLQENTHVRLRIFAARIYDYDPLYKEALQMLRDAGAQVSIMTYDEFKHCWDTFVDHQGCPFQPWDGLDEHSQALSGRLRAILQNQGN

[2] = target: Eukaryotic translation initiation factor 4H (Homo sapiens, UniProt Q15056); test: eIF4H binding inhibition – biochemical, uHTS, fluorescence polarization, translation initiation inhibitor project, primary screen (AID 2012)
[3] = target: DNA dC->dU-editing enzyme APOBEC-3G (Homo sapiens, UniProt Q9HC16); format: functional;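 note: Dose-response counterscreen measuring inhibition of APOBEC3G DNA deaminase activity, run while confirming APOBEC3A inhibitors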
Sequence of DNA dC->dU-editing enzyme APOBEC-3G (Q9HC16 whole entry): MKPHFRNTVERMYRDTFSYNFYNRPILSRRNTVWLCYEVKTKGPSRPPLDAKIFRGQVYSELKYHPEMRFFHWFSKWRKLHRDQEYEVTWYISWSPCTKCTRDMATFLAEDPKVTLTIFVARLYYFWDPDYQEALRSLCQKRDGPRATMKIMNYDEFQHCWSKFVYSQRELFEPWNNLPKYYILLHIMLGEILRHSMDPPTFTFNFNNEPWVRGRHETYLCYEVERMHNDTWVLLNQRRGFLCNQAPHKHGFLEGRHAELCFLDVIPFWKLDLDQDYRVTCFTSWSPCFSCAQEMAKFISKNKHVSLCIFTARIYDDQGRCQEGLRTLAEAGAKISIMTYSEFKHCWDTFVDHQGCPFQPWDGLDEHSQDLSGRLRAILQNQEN

[4] = target: Polyadenylate-binding protein 1 (Homo sapiens, UniProt P11940); test: blockers of PABP interaction with poly(A) – biochemical, fluorescence polarization, […] (AID 2014)
Sequence of Polyadenylate-binding protein 1 (P11940 whole entry): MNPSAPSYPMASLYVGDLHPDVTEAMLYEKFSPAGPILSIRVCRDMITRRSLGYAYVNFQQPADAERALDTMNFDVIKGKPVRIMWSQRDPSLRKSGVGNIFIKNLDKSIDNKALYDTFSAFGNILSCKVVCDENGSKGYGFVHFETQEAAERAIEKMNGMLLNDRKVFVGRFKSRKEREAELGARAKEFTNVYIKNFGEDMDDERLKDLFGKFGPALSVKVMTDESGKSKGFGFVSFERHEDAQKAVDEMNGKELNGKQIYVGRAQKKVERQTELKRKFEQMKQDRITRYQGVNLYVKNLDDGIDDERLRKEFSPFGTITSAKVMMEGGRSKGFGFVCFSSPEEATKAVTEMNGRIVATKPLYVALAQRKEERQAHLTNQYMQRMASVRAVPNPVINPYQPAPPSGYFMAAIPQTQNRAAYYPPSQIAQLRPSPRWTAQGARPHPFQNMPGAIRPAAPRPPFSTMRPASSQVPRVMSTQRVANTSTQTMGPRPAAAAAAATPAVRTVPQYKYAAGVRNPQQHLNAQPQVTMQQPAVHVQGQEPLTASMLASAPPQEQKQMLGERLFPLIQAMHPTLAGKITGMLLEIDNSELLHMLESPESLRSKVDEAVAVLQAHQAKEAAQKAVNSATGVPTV

Cytochrome P450 2C9 = Cytochrome P450 2C9 (Homo sapiens, UniProt P11712); conditions: Potency
Sequence of Cytochrome P450 2C9 (P11712 whole entry, the tested form may be a part): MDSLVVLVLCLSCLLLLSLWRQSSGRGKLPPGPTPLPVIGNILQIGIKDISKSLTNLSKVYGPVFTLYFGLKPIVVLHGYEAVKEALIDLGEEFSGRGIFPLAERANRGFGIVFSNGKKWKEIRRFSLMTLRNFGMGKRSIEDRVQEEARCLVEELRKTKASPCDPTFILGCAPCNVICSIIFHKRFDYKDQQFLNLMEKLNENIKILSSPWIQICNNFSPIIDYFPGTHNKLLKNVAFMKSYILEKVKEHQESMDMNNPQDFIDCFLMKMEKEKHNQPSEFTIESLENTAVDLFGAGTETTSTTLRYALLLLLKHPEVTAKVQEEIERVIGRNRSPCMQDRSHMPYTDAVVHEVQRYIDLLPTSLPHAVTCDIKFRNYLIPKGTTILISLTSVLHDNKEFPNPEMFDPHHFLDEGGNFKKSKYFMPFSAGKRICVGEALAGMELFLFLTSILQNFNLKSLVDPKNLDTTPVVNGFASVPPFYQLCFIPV

[5] = luciferase reporter signal reduction – luminescence, H4-C neuroglioblastoma cells, dose response (AID 2458); format: functional, cell-based;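 note: H4 neuroglioblastoma cells stably carrying a luciferase reporter gene fusion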
[6] = Luminescence Cell-Based Dose Response HTS to Identify Inhibitors of 5'UTR Stem-Loop Driven Prion Protein mRNA Translation in H4 Neuroglioblastoma Cells. [Related pubchem assays: 1827 (Project Summary), 1813 (Primary HTS)]; format: functional
[7] = alpha-synuclein stem-loop translation blockers – luminescence, H4 neuroglioblastoma cells, dose confirmation, confirmation (AID 2454); format: functional, cell-based;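 note: H4 neuroglioblastoma cells carrying an alpha-synuclein 5'UTR luciferase reporter; potency for inhibition of the luciferase signal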
[8] = HEK-293T viability loss after treatment – luminescence, T-cell screen hits, cytotoxicity control for TCR NF-kB inhibitor project, dose response (AID 489026); format: functional, cell-based;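 note: cells exposed to compound about 14 hours before the viability readout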
[9] = target: Heat shock protein HSP 90-alpha (Homo sapiens, UniProt P07900); test: Luminescence-based dose response biochemical high throughput screening assay for inhibitors of the Heat Shock Protein 90 (HSP90). [Related pubchem assays: 1831 (Summary AID.), 1846 (Confirmation screen.), 1789 (Primary screen.)]
[10] = target: T1, Histone-lysine N-methyltransferase NSD2 (Homo sapiens, UniProt O96028); format: biochemical
T1 sequence (O96028 whole entry): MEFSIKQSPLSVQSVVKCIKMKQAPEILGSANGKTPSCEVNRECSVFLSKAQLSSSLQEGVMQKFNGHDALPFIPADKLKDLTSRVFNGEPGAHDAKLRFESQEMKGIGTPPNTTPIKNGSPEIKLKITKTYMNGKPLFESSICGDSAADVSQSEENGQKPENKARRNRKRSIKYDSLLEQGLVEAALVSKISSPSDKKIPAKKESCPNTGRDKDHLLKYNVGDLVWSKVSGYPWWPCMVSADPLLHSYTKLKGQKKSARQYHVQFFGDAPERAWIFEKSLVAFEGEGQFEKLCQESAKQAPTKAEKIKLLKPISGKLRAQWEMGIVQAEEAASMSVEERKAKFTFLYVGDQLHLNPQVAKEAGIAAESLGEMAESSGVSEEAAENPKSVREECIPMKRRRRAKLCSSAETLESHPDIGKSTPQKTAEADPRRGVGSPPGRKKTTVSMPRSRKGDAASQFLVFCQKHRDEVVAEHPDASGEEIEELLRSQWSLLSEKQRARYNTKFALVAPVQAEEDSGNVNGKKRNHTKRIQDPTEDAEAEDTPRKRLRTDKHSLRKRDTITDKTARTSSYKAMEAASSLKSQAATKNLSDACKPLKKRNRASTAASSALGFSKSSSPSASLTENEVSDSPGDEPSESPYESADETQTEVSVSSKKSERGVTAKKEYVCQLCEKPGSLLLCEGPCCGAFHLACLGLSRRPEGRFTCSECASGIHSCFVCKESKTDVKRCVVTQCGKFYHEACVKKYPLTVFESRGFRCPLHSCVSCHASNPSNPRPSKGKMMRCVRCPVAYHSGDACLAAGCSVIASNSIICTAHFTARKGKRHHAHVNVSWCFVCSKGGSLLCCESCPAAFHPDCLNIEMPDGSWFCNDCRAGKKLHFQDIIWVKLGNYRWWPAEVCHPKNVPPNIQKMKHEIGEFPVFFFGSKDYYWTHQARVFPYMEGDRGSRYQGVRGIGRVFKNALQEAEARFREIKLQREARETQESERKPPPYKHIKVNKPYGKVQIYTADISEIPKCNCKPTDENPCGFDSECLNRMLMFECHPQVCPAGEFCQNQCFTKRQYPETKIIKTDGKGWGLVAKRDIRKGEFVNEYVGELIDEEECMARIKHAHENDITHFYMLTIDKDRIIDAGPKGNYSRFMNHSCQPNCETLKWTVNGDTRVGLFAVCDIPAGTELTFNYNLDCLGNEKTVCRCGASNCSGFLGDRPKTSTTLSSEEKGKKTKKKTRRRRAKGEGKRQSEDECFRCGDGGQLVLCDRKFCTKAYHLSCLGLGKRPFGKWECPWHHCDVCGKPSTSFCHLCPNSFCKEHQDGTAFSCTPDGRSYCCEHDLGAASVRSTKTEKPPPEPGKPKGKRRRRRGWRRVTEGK

[11] = alpha-synuclein stem-loop luciferase translation blockers – H4 neuroglioma cells, luminescence, confirmation (AID 1988); format: functional, cell-based
[12] = Luminescence-based counterscreen assay for KLF5 inhibitors: dose response cell-based high throughput screening assay to identify cytotoxic compounds using the IEC-6 intestinal epithelial cell line. [Related pubchem assays: 1700 (Primary screen.), 1834 (Confirmation screen.), 1858 (Summary AID.), 1905 (Counterscreen.)]; format: functional
cells = format: functional, cell-based
[13] = luciferase reporter signal suppression in cells – H4 neuroglioma cells, luminescence, dose response (AID 1990); format: functional, cell-based
Hexokinase HKDC1 = target: T2, Hexokinase HKDC1 (Homo sapiens, UniProt Q2TB90); test: inhibition of HKDC1 glucose phosphorylation – biochemical, W721R variant, dose response (AID 504729); format: functional
T2 sequence (Q2TB90 whole entry): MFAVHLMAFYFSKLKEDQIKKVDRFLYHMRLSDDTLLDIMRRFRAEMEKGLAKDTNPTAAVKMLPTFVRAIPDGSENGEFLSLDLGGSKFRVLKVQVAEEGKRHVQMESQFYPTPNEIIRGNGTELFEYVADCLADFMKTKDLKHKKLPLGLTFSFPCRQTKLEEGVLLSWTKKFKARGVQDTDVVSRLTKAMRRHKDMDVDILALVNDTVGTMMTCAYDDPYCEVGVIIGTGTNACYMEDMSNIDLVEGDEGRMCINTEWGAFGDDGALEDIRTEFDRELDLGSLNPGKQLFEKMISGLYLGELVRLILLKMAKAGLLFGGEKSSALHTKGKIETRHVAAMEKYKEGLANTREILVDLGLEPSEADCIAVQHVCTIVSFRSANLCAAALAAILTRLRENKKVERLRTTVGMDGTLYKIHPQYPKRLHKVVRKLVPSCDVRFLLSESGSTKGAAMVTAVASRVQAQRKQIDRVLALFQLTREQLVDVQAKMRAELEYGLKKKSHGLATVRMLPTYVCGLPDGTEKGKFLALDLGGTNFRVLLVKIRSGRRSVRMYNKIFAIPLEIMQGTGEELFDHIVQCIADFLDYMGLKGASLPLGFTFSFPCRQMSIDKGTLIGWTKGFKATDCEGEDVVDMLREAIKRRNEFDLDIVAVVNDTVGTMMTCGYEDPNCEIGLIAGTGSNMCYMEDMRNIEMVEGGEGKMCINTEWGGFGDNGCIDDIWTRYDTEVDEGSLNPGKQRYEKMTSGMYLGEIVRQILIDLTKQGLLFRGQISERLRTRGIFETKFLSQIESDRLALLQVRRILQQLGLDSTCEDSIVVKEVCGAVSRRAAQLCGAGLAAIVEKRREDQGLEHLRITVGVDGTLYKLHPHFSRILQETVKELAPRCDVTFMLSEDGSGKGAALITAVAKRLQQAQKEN

Oxytocin receptor = Oxytocin receptor (Homo sapiens, UniProt P30559); test: Fluorescence-based cell-based high throughput dose response assay for agonists of the Oxytocin Receptor (OXTR). [Related pubchem assays: 2435 (Primary screen (OXTR agonists in singlicate)), 434991 (Counterscreen (V1R agonists in triplicate)), 2482 (Summary (OXTR agonists)), 434963 (Confirmation screen (OXTR agonists in triplicate))]; format: functional
Sequence of Oxytocin receptor (P30559 whole entry): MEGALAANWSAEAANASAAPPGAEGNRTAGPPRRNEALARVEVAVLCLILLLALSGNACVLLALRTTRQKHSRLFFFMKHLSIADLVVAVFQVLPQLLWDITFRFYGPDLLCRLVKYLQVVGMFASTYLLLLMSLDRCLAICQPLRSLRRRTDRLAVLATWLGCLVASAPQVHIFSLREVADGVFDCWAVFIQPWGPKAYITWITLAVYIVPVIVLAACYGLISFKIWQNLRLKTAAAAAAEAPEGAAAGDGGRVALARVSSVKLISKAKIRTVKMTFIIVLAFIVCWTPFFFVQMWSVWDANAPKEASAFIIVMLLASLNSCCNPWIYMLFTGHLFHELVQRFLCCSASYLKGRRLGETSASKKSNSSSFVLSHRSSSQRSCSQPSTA

Vasopressin V1a receptor = Vasopressin V1a receptor (Homo sapiens, UniProt P37288); test: Counterscreen for Oxytocin Receptor (OXTR) agonists: Fluorescence-based cell-based high throughput dose response assay to identify agonists of the vasopressin 1 receptor (V1R). [Related pubchem assays: 2435 (Primary screen (OXTR agonists in singlicate)), 434991 (Counterscreen (V1R agonists in triplicate)), 2482 (Summary (OXTR agonists)) …; format: functional
Sequence of Vasopressin V1a receptor (P37288 whole entry): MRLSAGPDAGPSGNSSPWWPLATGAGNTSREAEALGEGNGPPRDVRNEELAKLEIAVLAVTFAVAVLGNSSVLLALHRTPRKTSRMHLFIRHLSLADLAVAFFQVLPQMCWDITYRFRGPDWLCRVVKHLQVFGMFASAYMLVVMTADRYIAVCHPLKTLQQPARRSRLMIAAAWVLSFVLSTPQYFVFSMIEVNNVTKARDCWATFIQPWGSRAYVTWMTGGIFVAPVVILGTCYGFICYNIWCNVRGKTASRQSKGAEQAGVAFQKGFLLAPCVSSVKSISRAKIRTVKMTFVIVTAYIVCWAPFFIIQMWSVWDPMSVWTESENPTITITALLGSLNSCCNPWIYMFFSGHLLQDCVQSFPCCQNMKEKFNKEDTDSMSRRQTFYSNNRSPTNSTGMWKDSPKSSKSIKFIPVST

[14] = target: T3, Dual specificity protein phosphatase 3 (Homo sapiens, UniProt P51452); test: SAR VHR1 Fluorescent Assay for In Vitro dose response studies. [Related pubchem assays (depositor defined):AID1654, AID1661, AID1878, AID1992, AID2004, AID2070, AID2085]; format: functional
T3 sequence (P51452 whole entry): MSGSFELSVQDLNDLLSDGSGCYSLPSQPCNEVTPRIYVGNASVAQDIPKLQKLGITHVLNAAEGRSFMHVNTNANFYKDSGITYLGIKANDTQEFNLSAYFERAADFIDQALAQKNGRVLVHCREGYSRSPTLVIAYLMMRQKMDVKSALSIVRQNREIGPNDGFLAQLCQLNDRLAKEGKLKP

[15] = target: T4, Tyrosine-protein phosphatase non-receptor type 7 (Homo sapiens, UniProt P35236); test: redox-active compounds inhibiting HePTP phosphatase – biochemical, fluorescence, mechanism study (AID 2068); format: functional
T4 sequence (P35236 whole entry): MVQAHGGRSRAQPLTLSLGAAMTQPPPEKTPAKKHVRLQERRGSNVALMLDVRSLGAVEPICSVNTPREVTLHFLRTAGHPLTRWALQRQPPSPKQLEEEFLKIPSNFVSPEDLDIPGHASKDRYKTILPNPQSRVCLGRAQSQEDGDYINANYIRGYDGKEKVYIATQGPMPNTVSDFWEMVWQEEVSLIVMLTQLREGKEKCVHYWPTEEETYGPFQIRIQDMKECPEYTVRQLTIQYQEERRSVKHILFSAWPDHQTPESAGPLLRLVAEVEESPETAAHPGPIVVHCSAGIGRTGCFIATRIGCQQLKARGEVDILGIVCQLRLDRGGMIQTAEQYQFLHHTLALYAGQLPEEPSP

[16] = target: T3, Dual specificity protein phosphatase 3; test: SAR VHR1 absorbance Assay for In Vitro dose response studies. [Related pubchem assays (depositor defined):AID1654, AID1661, AID1878, AID1992, AID2004]
[17] = target: Dual specificity protein phosphatase 6 (Rattus norvegicus, UniProt Q64346); format: functional;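 note: confirmatory in vitro dose-response testing of MKP-3 inhibition; recombinant His-tagged MKP-3 made in E. coli BL21 with OMFP substrate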
Sequence of Dual specificity protein phosphatase 6 (Q64346 whole entry): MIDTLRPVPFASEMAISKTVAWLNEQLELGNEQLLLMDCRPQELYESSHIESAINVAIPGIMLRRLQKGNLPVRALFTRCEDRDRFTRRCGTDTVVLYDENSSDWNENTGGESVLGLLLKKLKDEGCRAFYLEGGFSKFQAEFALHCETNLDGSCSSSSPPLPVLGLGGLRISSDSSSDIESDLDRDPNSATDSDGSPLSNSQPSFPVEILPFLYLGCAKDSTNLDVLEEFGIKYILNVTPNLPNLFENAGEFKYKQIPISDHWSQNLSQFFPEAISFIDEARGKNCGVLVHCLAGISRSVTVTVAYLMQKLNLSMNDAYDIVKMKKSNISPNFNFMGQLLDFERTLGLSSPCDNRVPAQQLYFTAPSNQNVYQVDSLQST

[18] = target: T5, Rac GTPase-activating protein 1 (Homo sapiens, UniProt Q9H0H5); test: blockers of MgcRacGAP-driven Rac1 GTP hydrolysis – biochemical, ADP Hunter fluorescence, primary and confirmatory, confirmation (AID 624330); format: functional
T5 sequence (Q9H0H5 whole entry): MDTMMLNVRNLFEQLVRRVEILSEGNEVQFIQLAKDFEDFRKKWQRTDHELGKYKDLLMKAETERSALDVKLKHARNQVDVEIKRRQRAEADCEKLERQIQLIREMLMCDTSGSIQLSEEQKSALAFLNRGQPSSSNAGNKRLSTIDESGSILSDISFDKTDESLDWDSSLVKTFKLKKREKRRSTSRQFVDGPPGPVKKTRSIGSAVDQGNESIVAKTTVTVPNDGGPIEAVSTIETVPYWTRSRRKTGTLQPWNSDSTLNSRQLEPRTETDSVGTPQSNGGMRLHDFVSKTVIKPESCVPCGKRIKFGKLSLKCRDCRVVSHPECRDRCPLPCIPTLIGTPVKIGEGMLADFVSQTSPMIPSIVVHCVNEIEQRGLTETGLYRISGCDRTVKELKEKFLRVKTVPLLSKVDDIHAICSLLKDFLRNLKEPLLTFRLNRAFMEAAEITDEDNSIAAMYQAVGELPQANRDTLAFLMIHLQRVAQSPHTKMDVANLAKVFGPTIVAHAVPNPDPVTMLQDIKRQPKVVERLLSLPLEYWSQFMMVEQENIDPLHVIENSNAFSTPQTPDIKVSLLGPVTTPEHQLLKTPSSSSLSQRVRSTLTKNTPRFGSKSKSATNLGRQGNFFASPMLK

[19] = target: T3, Dual specificity protein phosphatase 3; test: MOA VHR1 Fluorescent secondary assay for identification of redox-state modulating compounds. [Related pubchem assays (depositor defined):AID1654, AID1661, AID1878, AID1957]

Sequence of Aspartyl aminopeptidase (Q8I2J3 whole entry): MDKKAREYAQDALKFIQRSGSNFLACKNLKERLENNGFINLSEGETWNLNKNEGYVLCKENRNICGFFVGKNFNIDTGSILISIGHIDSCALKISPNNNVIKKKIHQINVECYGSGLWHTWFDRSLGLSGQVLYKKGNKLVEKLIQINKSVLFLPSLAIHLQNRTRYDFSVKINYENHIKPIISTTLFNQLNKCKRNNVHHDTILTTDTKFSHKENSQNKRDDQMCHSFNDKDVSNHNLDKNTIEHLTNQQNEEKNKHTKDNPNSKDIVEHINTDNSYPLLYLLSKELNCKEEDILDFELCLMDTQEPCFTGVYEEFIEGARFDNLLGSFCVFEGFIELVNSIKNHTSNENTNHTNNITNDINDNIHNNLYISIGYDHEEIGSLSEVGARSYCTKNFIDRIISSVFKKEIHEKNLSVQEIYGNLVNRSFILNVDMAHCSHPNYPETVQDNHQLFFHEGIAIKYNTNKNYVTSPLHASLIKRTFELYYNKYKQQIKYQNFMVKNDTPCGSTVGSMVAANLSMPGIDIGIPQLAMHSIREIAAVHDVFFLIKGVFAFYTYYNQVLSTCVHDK
Sequence of Procathepsin L (P07711 whole entry): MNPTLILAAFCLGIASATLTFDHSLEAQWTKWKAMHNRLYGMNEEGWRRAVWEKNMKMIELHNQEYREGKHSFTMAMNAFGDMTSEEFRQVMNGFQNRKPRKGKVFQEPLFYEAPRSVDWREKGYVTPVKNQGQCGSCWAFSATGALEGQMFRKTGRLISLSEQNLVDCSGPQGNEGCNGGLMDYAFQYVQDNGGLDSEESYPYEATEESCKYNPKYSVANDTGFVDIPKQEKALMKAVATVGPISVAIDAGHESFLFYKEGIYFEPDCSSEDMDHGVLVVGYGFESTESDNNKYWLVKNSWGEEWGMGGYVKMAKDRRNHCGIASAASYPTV

Compound: CCC(C)c1ccc(O)c(N)c1 (stereo unspecified)
- IC50 (Procathepsin L): > 59.6 µM (not active)
- IC50 (Aspartyl aminopeptidase): 2.25 µM (active)

Compound: Cn1c(SCC(=O)N2CCOCC2)nnc1-c1cccc(NC(=O)c2ccccc2)c1
- IC50 [1]: 2.62 µM (active)
- IC50 [2]: > 100 µM (inactive)
- IC50 [3]: 3.37 µM (active)
- IC50 [4]: 2.81 µM (active)

Compound: c1csc(CNc2ncnc3ccc(-c4ccc5c(c4)OCO5)cc23)c1
- AC50 (Cytochrome P450 2C9): 0.794 µM (inconclusive)

Compound: COc1cc(/C=C/[N+](=O)[O-])ccc1OCc1cccc(C(=O)O)c1
- EC50 [5]: 0.99 µM (active)
- EC50 [6]: < 0.1 µM (active)
- EC50 [7]: 0.937 µM (active)
- IC50 [8]: > 80 µM (inactive)
- IC50 [9]: 7.32 µM (active)
- AC50 [10]: 11.9 µM (active)
- EC50 [11]: 0.161 µM (active)
- IC50 [12]: > 39.8 µM (not active)
- EC50 (cells): > 12 µM (inconclusive)
- EC50 [13]: 2.43 µM (inconclusive)

Compound: COC1(NS(=O)(=O)c2ccc(Br)cc2)C(C)=CC(=O)C=C1C
- IC50 (Hexokinase HKDC1): > 80 µM (inactive)

Compound: COc1ccc(C2SCCN2C(S)=Nc2cccc(Cl)c2)cc1 (stereo unspecified)
- EC50 (Oxytocin receptor): > 29.9 µM (not active)
- EC50 (Vasopressin V1a receptor): > 29.9 µM (not active)

Compound: COc1cc(C(S)=NC2CCCCC2)ccc1O
- IC50 [14]: 22.5 µM (active)
- IC50 [15]: 2.82 µM (active)
- IC50 [16]: > 100 µM (inactive)
- IC50 [17]: > 100 µM (inactive)
- IC50 [18]: 32.6 µM (active)
- IC50 [19]: 3.4 µM (active)
